Measurements reported in the NIST ThermoML archive (doi:10.1021/acs.jced.8b01165).
Numbers after ± are expanded uncertainties.

Legend:
[1] = Molar enthalpy of transition or fusion; settings: Crystal; DSC
[2] = Crystal; DSC

With `C=C(C)C1Cc2c(ccc3c2OC2COc4cc(OC)c(OC)cc4C2C3=O)O1` (configuration not stated) the “Molar enthalpy of transition or fusion” value [1] was 6.8 ± 0.203 kcal/mol and the Triple point temperature [2] was 435.89 ± 1 K.
